The values below are quoted from earlier work in patent publication US20030148386A1, “Method for drug design using comparative molecular field analysis (CoMFA) extended for multi-mode/multi-species ligand binding and disposition” (priority 2001, published 2003).

The structures appear in SMILES notation.

One data set deals with T1, aryl hydrocarbon (Ah) receptor (Rattus norvegicus, UniProt P41738).
T1 sequence (P41738 10-853): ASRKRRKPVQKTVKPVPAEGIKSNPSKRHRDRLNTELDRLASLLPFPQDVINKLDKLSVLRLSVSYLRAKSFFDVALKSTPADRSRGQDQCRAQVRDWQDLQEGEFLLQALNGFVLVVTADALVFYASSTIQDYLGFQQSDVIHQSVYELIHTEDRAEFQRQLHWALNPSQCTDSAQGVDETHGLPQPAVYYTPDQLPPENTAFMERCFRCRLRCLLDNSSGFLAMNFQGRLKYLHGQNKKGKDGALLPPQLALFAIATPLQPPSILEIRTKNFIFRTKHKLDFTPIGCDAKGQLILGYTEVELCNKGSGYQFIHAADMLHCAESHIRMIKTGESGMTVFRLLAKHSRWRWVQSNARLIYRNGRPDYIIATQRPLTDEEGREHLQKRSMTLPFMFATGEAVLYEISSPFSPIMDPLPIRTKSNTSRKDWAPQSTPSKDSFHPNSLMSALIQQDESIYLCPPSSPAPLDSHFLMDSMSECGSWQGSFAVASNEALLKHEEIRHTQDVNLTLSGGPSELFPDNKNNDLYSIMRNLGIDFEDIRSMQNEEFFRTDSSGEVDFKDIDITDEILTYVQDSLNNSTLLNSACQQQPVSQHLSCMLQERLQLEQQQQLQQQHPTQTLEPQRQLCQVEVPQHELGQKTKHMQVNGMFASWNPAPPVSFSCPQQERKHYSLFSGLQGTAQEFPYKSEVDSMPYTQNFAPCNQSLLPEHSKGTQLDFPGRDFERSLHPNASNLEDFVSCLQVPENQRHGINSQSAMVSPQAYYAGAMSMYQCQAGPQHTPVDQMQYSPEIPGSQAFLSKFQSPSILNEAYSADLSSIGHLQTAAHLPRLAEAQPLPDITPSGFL
Details: not given
Turning to `Clc1cc2oc3c(Cl)c(Cl)c(Cl)cc3c2cc1Cl` [Compound 29], the “binding affinity to the Ah receptor (in words)” value is listed as “highest binding affinity”.
For the compound `Clc1cc2c(cc1Cl)Oc1cc(Cl)c(Cl)cc1O2` [TCDD, 2,3,7,8-tetrachloro dibenzodioxin, reference compound], the “binding affinity to the Ah receptor (in words)” value is on record as “highest binding affinity”.

The data set is the same for the next values; noted with them: pEC50=-log(EC50)=logKi, EC50 in mol/L; displacement of radiolabeled TCDD.
Regarding `Clc1ccc2c(c1)oc1ccccc12` [Compound 03], the pEC50 observed is on record as 4.377 ± 0.058.
Turning to `Clc1cc(Cl)c2c(c1)oc1c(Cl)cccc12` [Compound 08], the pEC50 observed is 5.357.
With `Clc1cc(Cl)c2c(c1)oc1ccc(Cl)cc12` [Compound 09], the pEC50 observed is reported as 4.071.
On to `Clc1cc2oc3c(Cl)cccc3c2c(Cl)c1Cl` [Compound 13], for which the pEC50 observed is reported as 6.456.
`Clc1ccc2c(c1)oc1cc(Cl)c(Cl)c(Cl)c12` [Compound 14]: the pEC50 observed is on record as 6.959.
Consider `Clc1cc2c(oc3c(Cl)cccc32)c(Cl)c1Cl` [Compound 16], for which the pEC50 observed is recorded as 6.456.
In the case of `Clc1ccc2c(c1)oc1c(Cl)c(Cl)c(Cl)cc12` [Compound 17], the pEC50 observed is given as 7.602.
Regarding `Clc1ccc2oc3c(Cl)c(Cl)c(Cl)cc3c2c1` [Compound 18], the pEC50 observed was 6.699.
For the compound `Clc1cc(Cl)c2oc3cc(Cl)c(Cl)cc3c2c1` [Compound 19], the pEC50 observed is given as 6.658.
Consider `Clc1cc2oc3cc(Cl)c(Cl)cc3c2cc1Cl` [Compound 20], for which the pEC50 observed was 7.387 ± 0.059.
Take `Clc1ccc2oc3c(Cl)c(Cl)c(Cl)c(Cl)c3c2c1` [Compound 21]: the pEC50 observed is given as 6.921.
In the case of `Clc1cc2oc3cc(Cl)c(Cl)c(Cl)c3c2cc1Cl` [Compound 22], the pEC50 observed is reported as 7.128 ± 0.105.
On to `Clc1cc(Cl)c2c(c1)oc1cc(Cl)c(Cl)c(Cl)c12` [Compound 23], for which the pEC50 observed was 6.398.
On to `Clc1ccc2c(oc3c(Cl)cc(Cl)c(Cl)c32)c1Cl` [Compound 24], for which the pEC50 observed is recorded as 7.169.
With `Clc1cc(Cl)c2oc3c(Cl)cc(Cl)c(Cl)c3c2c1` [Compound 25], the pEC50 observed is listed as 5.509.
As for `Clc1cc2oc3c(Cl)cc(Cl)c(Cl)c3c2cc1Cl` [Compound 26], the pEC50 observed is listed as 5.886.
Regarding `Clc1cc(Cl)c2c(c1)oc1c(Cl)cc(Cl)c(Cl)c12` [Compound 27], the pEC50 observed was 4.699.
Consider `Clc1cc2oc3c(Cl)c(Cl)cc(Cl)c3c2cc1Cl` [Compound 28], for which the pEC50 observed is on record as 6.699.
With `Clc1cc2oc3c(Cl)c(Cl)c(Cl)cc3c2cc1Cl` [Compound 29], the pEC50 observed is given as 7.824 ± 0.028.
`Clc1cc(Cl)c2c(c1)oc1c(Cl)c(Cl)c(Cl)cc12` [Compound 30]: the pEC50 observed is given as 6.699.
For the compound `Clc1cc2oc3c(Cl)c(Cl)c(Cl)c(Cl)c3c2cc1Cl` [Compound 31], the pEC50 observed is recorded as 6.638.
With `Clc1cc2c(oc3cc(Cl)c(Cl)c(Cl)c32)c(Cl)c1Cl` [Compound 32], the pEC50 observed was 6.569 ± 0.137.
`Clc1cc2c(oc3c(Cl)cc(Cl)c(Cl)c32)c(Cl)c1Cl` [Compound 33]: the pEC50 observed is recorded as 5.081.
As to `Clc1cc2c(oc3c(Cl)c(Cl)c(Cl)cc32)c(Cl)c1Cl` [Compound 34], the pEC50 observed is recorded as 7.328 ± 0.036.
